Measured values from patent US11718628B2, “SREBP inhibitors comprising a 6-membered central ring” (Capulus Therapeutics, LLC, priority 2018, dated 2023).
Converted amounts (≈) assume the structure as drawn.

Columns and labels:
[1] = Half-life in mouse liver microsomes; format: in vitro ADME; details: mouse, liver microsomes, read-out: H: half-life of mouse liver microsomes
Method: (§1) Half-life Human Microsomes: Compounds were evaluated for stability in human liver microsomes. A 10 mM stock solution of the compound being evaluated was prepared in DMSO and diluted with water:acetonitrile (1:1) to a concentration of 1 mM. A working concentration of 100 μM was prepared by further dilution with water:acetonitrile (1:1). To make the preincubation mixture, 2.5 μL of the diluted compound was combined with 75 μL of human liver microsomes at 3.33 mg/mL, and 85 μL of 100 mM potassium phosphate buffer, and this mixture was pre-incubated for 10 min at 37° C. To make the 60 minute mixture without cofactor, 32.5 μL of the preincubation mixture was combined with 17.5 μL of 100 mM potassium phosphate buffer and incubated for 60 min at 37° C. To make the 0 min sample with cofactor (NADPH), 16.25 μL of the preincubation mixture was combined with 200 μL of acetonitrile containing internal standard and 8.75 μL of cofactor (NADPH). To make the incubation mixture, 62 μL of cofactor (2.85 mM) was combined with the remaining incubation mixture, and incubated for 60 min at 37° C. To prepare the sample mixture to be evaluated, 25 μL incubation mixture was combined with 200 μL of acetonitrile containing internal standard and vortexed for 5 min at 1200 rpm, then centrifuged for 10 min at 4000 rpm. The supernatant was diluted 2 fold with water and injected on LC-MS/MS. The sample mixture was evaluated by LC-MS/MS using 10 mM ammonium acetate with 0.1% FA as the aqueous mobile phase, and methanol as the organic mobile phase.
Half-life Mouse Microsomes: Compounds were evaluated in mouse liver microsomes following a similar procedure as described above for human liver microsomes. A similar procedure could be used to evaluate compounds in rat liver microsomes.

Kinetic solubility = format: physicochemical; details: aqueous buffer, kinetic from dmso stock, pH 7.4 buffer, room temperature, 1.0% DMSO, read-out: I: kinetic solubility class
Method: Kinetic Solubility Procedure: A 10 mM stock solution of a compound was prepared in DMSO, then 4 μL of the stock was added to a deep well plate containing 396 μL of pH 7.4 buffer. The sample plate was vortexed at 800 rpm for 24 h on thermomixer at room temperature. The plate was sealed well during the incubation process. The DMSO content in the sample was 1.0%. The concentration of the evaluated compound in the final incubation was 100 μM. At the end of the incubation period, the sample plate was centrifuged at 4000 rpm for 10 min and analyzed in LC-UV against a calibration curve (CC). Values <10 μg/mL=Low; 10 to 60 μg/mL=Medium; >60 μg/mL=High.

[2] = Half-life in human liver microsomes; format: in vitro ADME; details: human, liver microsomes, NADPH, 37° C., read-out: G: half-life human liver microsomes
Method: as §1

SMILES | half-life at 1 µM [1] [min] | solubility kinetic at 24 h (Kinetic solubility) [µg/mL] | half-life at 1 µM [2] [min]
Cc1cc(S(=O)(=O)NC(C)C)ccc1-c1cncc(-c2ccnc(C(C)(C)C)c2)c1 | 177 | 10 to 60 (≈ 23.6 to 142 µM) | 1.69
CC(C)NS(=O)(=O)Nc1ccc(-c2cncc(-c3ccnc(C(C)(C)C)c3)c2)c(Cl)c1 | 178 | 10 to 60 (≈ 21.8 to 131 µM) | 27.3
Cc1c(-c2ccnc(C(C)(C)C)c2)cncc1-c1ccc(C(=O)N2CCCC(O)C2)cc1Cl (stereo not drawn) | 25.5 | < 10 | 11.3
CC(C)(C)c1cc(-c2cc(-c3ccc(C(=O)N4CCC(O)CC4)cc3Cl)cc3cnccc23)ccn1 | 33.8 | 10 to 60 (≈ 20 to 120 µM) | 11.4
CC(C)(C)c1cc(-c2cc(-c3ccc(C(=O)N4CCC(O)CC4)cc3Cl)c3ccncc3c2)ccn1 | 108 | 10 to 60 (≈ 20 to 120 µM) | 119
CC(C)(C)c1cc(-c2cncc(-c3ccc(NC(=O)OC4CCNCC4)cc3Cl)c2)ccn1 | 1090 | < 10 | 1.78
CC1(c2cc(-c3cncc(-c4ccc(C(=O)N5CCC(O)CC5)cc4Cl)c3)ccn2)OCCO1 | 101 | 10 to 60 (≈ 20.8 to 125 µM) | 9.74
CC(C)(C)c1cc(-c2cc(-c3ccc(C(=O)N4CCC(O)CC4)cc3Cl)cc3ncccc23)ccn1 | 10.2 | < 10 | 19
CC(C)(C)c1cc(-c2cc(-c3ccc(C(=O)N4CCC(O)CC4)cc3Cl)c3cccnc3c2)ccn1 | 19.3 | < 10 | 2.07
Cc1c(-c2ccnc(C(C)(C)C)c2)cncc1-c1ccc(C(=O)N2CCC(O)CC2)cc1Cl | 19.5 | 10 to 60 (≈ 21.6 to 129 µM) | 3.21
CN(C)c1cc(-c2ccnc(C(C)(C)C)c2)cc(-c2ccc(C(=O)N3CCC(O)CC3)cc2Cl)c1 | 13.6 | < 10 | 20.7
CC(C)(C)c1cc(-c2cc(C#N)cc(-c3ccc(C(=O)N4CCC(O)CC4)cc3Cl)c2)ccn1 | 119 | < 10 | 16.1
CC(C)(C)c1cc(-c2cc(F)cc(-c3ccc(C(=O)N4CCC(O)CC4)cc3Cl)c2)ccn1 | 13.6 | < 10 | 74.6
O=C(c1ccc(-c2cncc(-c3ccnc4c3CCC4)c2)c(Cl)c1)N1CCC(O)CC1 | 27.4 | 10 to 60 (≈ 23 to 138 µM) | 9.79
CC(C)(C)c1cc(-c2cncc(-c3ccc(NC(=O)OC4CCC(O)CC4)cc3Cl)c2)ccn1 (stereo not drawn) | 120 | < 10 | 31.3
CC(C)(CO)c1cc(-c2cncc(-c3ccc(NS(C)(=O)=O)cc3Cl)c2)ccn1 | > 120 | < 10 | 6.5
CC(C)OC(=O)Nc1ccc(-c2cncc(-c3ccnc(C(C)(C)CO)c3)c2)c(Cl)c1 | 87.8 | < 10 | 21.5
CC(C)(C)c1cc(-c2cccc(-c3ccc(NS(=O)(=O)C(F)(F)F)cc3Cl)c2F)ccn1 | 81.3 | 10 to 60 (≈ 20.5 to 123 µM) | 0.54
CC(C)(C)c1cc(-c2cccc(-c3ccc(NS(C)(=O)=O)cc3Cl)c2)ccn1 | 110 | < 10 | 90.8
CC(C)(C)c1cc(-c2cccc(-c3ccc(NS(C)(=O)=O)cc3Cl)c2F)ccn1 | 206 | < 10 | 16.4
CC(C)(C)c1cc(-c2cccc(-c3ccc(C(=O)N4CCC(O)CC4)cc3Cl)c2F)ccn1 | 40.3 | < 10 | 16.3
CC(C)(C)c1cc(-c2cccc(-c3ccc(C(=O)NS(=O)(=O)C4CC4)cc3Cl)c2)ccn1 | 66.7 | 10 to 60 (≈ 21.3 to 128 µM) | 12.1
CC(C)(C)c1cc(-c2cccc(-c3ccc(NS(=O)(=O)CC(F)(F)F)cc3Cl)c2)ccn1 | > 120 | < 10 | > 120
CC(C)(C)c1cc(-c2cccc(-c3ccc(NC(=O)N4CCC(O)CC4)cc3Cl)c2)ccn1 | 400 | < 10 | 72.1
CC(C)(C)c1cc(-c2cncc(-c3ccc(C(=O)N4CCC(O)CC4)cc3)c2F)ccn1 [drawing 321] | 82.6 | 10 to 60 (≈ 23.1 to 138 µM) | 126
CC(C)(C)c1cc(-c2cncc(-c3ccc(NS(C)(=O)=O)cc3Cl)c2)ccn1 [drawing 346] | 59.6 | < 10 | 19.8
CC(C)OC(=O)Nc1ccc(-c2cncc(-c3ccnc(C4OCCO4)c3)c2)c(Cl)c1 [drawing 371] | 19.2 | < 10 | 13.5
CC(C)OC(=O)Nc1ccc(-c2cncc(-c3ccnc(C(C)(C)C)c3)c2)c(Cl)c1 [drawing 372] | 222 | < 10 | 69.9
CC(C)(C)c1cc(-c2cc(-c3ccc(C(=O)N4CCC(O)CC4)cc3Cl)ncn2)ccn1 [drawing 376] | 68.2 | 10 to 60 (≈ 22.2 to 133 µM) | 20.3
CC(C)(C)c1cc(-c2cccc(-c3ccc(C(=O)N4CCC(O)CC4)cc3Cl)c2)ccn1 [drawing 377] | 89.9 | < 10 | 46.5

Now from value to compound:

half-life at 1 µM [1] [min] | solubility kinetic at 24 h (Kinetic solubility) [µg/mL] | half-life at 1 µM [2] [min] | SMILES
1860 | 10 to 60 (≈ 22.2 to 133 µM) | 2.62 | CC(C)(C)c1cc(-c2cncc(-c3cc(C(=O)N4CCC(O)CC4)ccc3Cl)c2)ccn1
9.75 | 10 to 60 (≈ 21.5 to 129 µM) | 2.98 | CC(C)(CNC(=O)c1ccc(-c2cncc(-c3ccnc(C(C)(C)C)c3)c2)c(Cl)c1)C(=O)O
21.3 | < 10 | 15.4 | CC(C)(C)c1cc(-c2cncc(-c3ccc(C(=O)N4CC5CCC(C4)C5O)cc3Cl)c2)ccn1 (stereo not drawn)
75.6 | 10 to 60 (≈ 22.1 to 133 µM) | 29.4 | CC(C)(C)c1cc(-c2cncc(-c3ccc(C(=O)N4CC(O)C(O)C4)cc3Cl)c2)ccn1 (stereo not drawn)
36.2 | 10 to 60 (≈ 22.1 to 133 µM) | 27.1 | CC(C)(C)c1cc(-c2cncc(-c3ccc(C(=O)N4C[C@@H](O)[C@@H](O)C4)cc3Cl)c2)ccn1
26.5 | 10 to 60 (≈ 22.9 to 138 µM) | 1.74 | CC(C)(C)c1cc(-c2cncc(-c3ccc(C(=O)N4CC(CO)C4)cc3Cl)c2)ccn1
38.3 | 10 to 60 (≈ 23.7 to 142 µM) | 2.01 | CC(C)(C)c1cc(-c2cncc(-c3ccc(C(=O)N4CC(O)C4)cc3Cl)c2)ccn1
213 | 10 to 60 (≈ 23.3 to 140 µM) | 13.9 | Cc1cc(C(=O)N2CCC(O)CC2)ccc1-c1cncc(-c2ccnc(C(C)(C)C)c2)c1 [drawing 337]
2920 | 10 to 60 (≈ 22.1 to 133 µM) | 541 | CC(C)(O)c1cc(-c2cncc(-c3ccc(C(=O)N4CCC(O)CC4)cc3Cl)c2)ccn1 [drawing 356]
11.4 | 10 to 60 (≈ 21.6 to 129 µM) | 5.81 | CC1(O)CCCN(C(=O)c2ccc(-c3cncc(-c4ccnc(C(C)(C)C)c4)c3)c(Cl)c2)C1 (stereo not drawn) [drawing 366]
30.3 | 10 to 60 (≈ 21.6 to 129 µM) | 13 | CC1(O)CCN(C(=O)c2ccc(-c3cncc(-c4ccnc(C(C)(C)C)c4)c3)c(Cl)c2)CC1 [drawing 369]
8.98 | 10 to 60 (≈ 21.6 to 129 µM) | 2.02 | COC1CCCN(C(=O)c2ccc(-c3cncc(-c4ccnc(C(C)(C)C)c4)c3)c(Cl)c2)C1 (stereo not drawn) [drawing 375]
80.1 | 10 to 60 (≈ 22.2 to 133 µM) | 61.2 | CC(C)(C)c1cc(-c2cncc(-c3ccc(C(=O)N4CCC(O)CC4)cc3Cl)c2)ccn1 [drawing 378]
66.5 | 10 to 60 (≈ 21.5 to 129 µM) | 21.8 | CC(C)(C)c1cc(-c2cncc(-c3ccc(C(=O)N4CCC(O)C(O)C4)cc3Cl)c2)ccn1 (stereo not drawn) [drawing 419]
